Data set [1] can be described thus: Drug absorption in microfluidic device without PHH (LC-MS/MS). It counts as physicochemical. Particulars: for Drug absorption rate: Microfluidic device/Polystyrene plate, without PHH. How it is done:
A culture medium containing MDZ, DIC, PHE, BUF, or MPHT was added to a microfluidic device or a polystyrene plate. Subsequently, 1, 2, and 4 hours after the addition of the drugs, the amounts of these drugs were quantified with LC-MS/MS.
A culture medium containing APAP (a CYP1A2 metabolite), 1OH-MDZ (a CYP3A4 metabolite), 4OH-DIC (a CYP2C9 metabolite), 4OH-MPHT (a CYP2C19 metabolite), or 1OH-BUF (a CYP2D6 metabolite) was added to a microfluidic device or a polystyrene plate. Subsequently, 1, 2, and 4 hours after the addition of the drugs, the amounts of these drugs were quantified with LC-MS/MS.
Subsequently, it was examined whether the absorption of the drugs and metabolites could be predicted by the relative physicochemical characteristics between the microfluidic device and the polystyrene plate. The drug absorption rate between the microfluidic device and the polystyrene plate was calculated. Subsequently, a correlation coefficient R^2 value between the drug absorption rate and the physicochemical characteristics (DiffCoef, M Log P, S+Log P, S+log D, MWt, and tPSA) of the drugs was calculated.

The target in another data set is T1, CYP2D6 (Homo sapiens, UniProt P10635).
T1 construct: endogenous in cells; host or cells: primary human hepatocytes (PHH)
T1 sequence (P10635 whole entry): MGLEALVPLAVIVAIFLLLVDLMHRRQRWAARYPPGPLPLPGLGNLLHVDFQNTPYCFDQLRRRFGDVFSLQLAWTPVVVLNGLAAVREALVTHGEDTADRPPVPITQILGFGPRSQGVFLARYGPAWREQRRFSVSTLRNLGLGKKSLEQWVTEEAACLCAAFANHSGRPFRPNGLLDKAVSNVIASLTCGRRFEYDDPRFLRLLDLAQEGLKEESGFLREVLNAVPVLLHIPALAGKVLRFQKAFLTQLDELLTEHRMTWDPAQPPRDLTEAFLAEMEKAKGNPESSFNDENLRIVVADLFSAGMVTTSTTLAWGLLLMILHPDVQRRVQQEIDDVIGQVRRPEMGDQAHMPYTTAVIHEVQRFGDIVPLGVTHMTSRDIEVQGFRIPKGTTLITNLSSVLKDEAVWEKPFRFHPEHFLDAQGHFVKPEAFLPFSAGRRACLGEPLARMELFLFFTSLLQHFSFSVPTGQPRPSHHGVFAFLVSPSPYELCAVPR
Briefly: Measurement of CYP activity using CYP substrates in PHH (BUF to 1OH-BUF). It counts as in vitro ADME. Particulars: 10 μM BUF. On the procedure:
(§1) The LC-MS/MS analysis was carried out to measure the activity of CYP. Prior to a CYP substrate treatment, PHH was cultured in DMEM containing 10 mM HEPES for 30 minutes. Subsequently, the PHH was cultured in a culture medium containing 5 μM MDZ (the metabolite thereof is 1OH-MDZ), 50 μM MPHT (the metabolite thereof is 4OH-MPHT), 5 μM DIC (the metabolite thereof is 4OH-DIC), 10 μM BUF (the metabolite thereof is 1OH-BUF), or 50 μM PHE (the metabolite thereof is APAP). The supernatant was recovered 1, 2, and 4 hours after the treatment with the substrate. At the time of recovering the supernatant, an equal amount of a culture medium containing the substrate was added.
(§2) The recovered supernatant was mixed with acetonitrile (FUJIFILM Wako Pure Chemical Corporation) containing an equal volume of 5 μM propranolol (internal standard). The specimen was filtered through a Cosmonice Filter W (Nacalai Tesque, Inc.) having a pore size of 0.45 μm, the supernatant was subsequently analyzed by LC-MS/MS, and the concentration of the metabolite was measured based on the standard curve. […]
(§3) Subsequently, the drug metabolic activities of the PHH cultured in the PDMS device and the PS plate were compared. […] Subsequently, after 1, 2, and 4 hours, the amounts of the metabolites (OH-MDZ, 4OH-DIC, APAP, 1OH-BUF, and 4OH-MPHT) generated in the culture medium were measured by LC-MS/MS.

Another data set concerns the target T2, CYP2C9 (Homo sapiens, UniProt P11712).
T2 construct: endogenous in cells; host or cells: primary human hepatocytes (PHH)
Briefly: Measurement of CYP activity using CYP substrates in PHH (DIC to 4OH-DIC). Type of data set: in vitro ADME. The conditions noted are these: 5 μM DIC. How it is done:
as §1, §2, §3

A further data set addresses T3, CYP2C19 (Homo sapiens, UniProt P33261).
T3 construct: endogenous in cells; host or cells: primary human hepatocytes (PHH)
Briefly: Measurement of CYP activity using CYP substrates in PHH (MPHT to 4OH-MPHT). Type of data set: in vitro ADME. Particulars: 50 μM MPHT. On the procedure: as §1, §2, §3

Data set [2] can be described thus: Acetaminophen-induced cytotoxicity, WST-8 assay. Type of data set: cell-based, human. The conditions noted are these: human, PHH cultured on the polystyrene plate. How it is done:
(§4) PHH was exposed to 10 mM APAP (FUJIFILM Wako Pure Chemical Corporation) for 4 days. Cell viability was measured according to a WST-8 assay. The WST-8 assay was carried out using a Cell Counting Kit-8 (Dojindo Molecular Technologies. Inc.) according to the instruction manual. The cell viability was calculated as a percentage with respect to cells not subjected to a drug treatment.
(§5) The drug responsiveness of the PHH cultured in the microfluidic device and the polystyrene plate was evaluated. PHH was treated with acetaminophen (APAP), which is known to cause drug-induced liver damage at a high concentration, in order to investigate whether or not drug-induced liver damage can be evaluated in PHH cultured in a microfluidic device. PHH was seeded in a microfluidic device or a polystyrene plate and cultured for 24 hours. Subsequently, the PHH was exposed to 10 mM acetaminophen for 4 days. Subsequently, cell viability was measured according to a WST-8 assay.
(§6) Subsequently, the hepatotoxicity of PHH due to acetaminophen was examined. The PHH cultured on the polystyrene plate was exposed to acetaminophen at various concentrations for 4 days. Subsequently, cell viability was measured according to a WST-8 assay. […] The data is indicated as average value±standard deviation (n=3).

A further data set has as its system PHH. Briefly: Acetaminophen-induced cytotoxicity, WST-8 assay. The conditions noted are these: 10 mM acetaminophen, 4 days. It counts as cell-based, human. How it is done:
as §4, §5, §6

Another data set has as its system CYP1A2. Briefly: Measurement of CYP activity using CYP substrates in PHH (PHE to APAP). It counts as in vitro ADME, human. Particulars: 50 μM PHE. On the procedure:
The supernatant was recovered 1, 2, and 4 hours after the treatment with the substrate.

A further data set deals with CYP2B6. Put plainly: CYP induction test (quantitative RT-PCR) in PHH. The conditions noted are these: 500 μM phenobarbital, 48 hours, versus DMSO. On the procedure:
PHH was treated with 50 μM omeprazole, 500 μM phenobarbital, or 20 μM rifampicin (all of which are from FUJIFILM Wako Pure Chemical Corporation) for 48 hours. Each of these drugs is known to induce CYP1A2, 2B6, and 3A4. In order to measure the inducibility of CYP1A2, 2B6, and 3A4, the expression level of CYP was measured by quantitative RT-PCR. The expression level of the target gene was standardized with the expression level of GAPDH. The inducibility was calculated as a change in expression level in terms of folds in cells treated with DMSO.
PHH was seeded in each of a microfluidic device and a polystyrene plate and cultured for 24 hours. Subsequently, the cultured PHH was treated with 50 μM omeprazole, 500 μM phenobarbital, or […] rifampicin for 48 hours. […] Subsequently, the expression level of each CYP gene was measured by quantitative RT-PCR. Cells treated with DMSO (final concentration: 0.1%) were used as a control.

SMILES strings stand for the structures.

Results on five compounds are retold here after patent US20240150691A1, “BILE DUCT CHIP AND USE THEREOF” (Kyoto University, priority 2021, published 2024).

T2 sequence (P11712 whole entry): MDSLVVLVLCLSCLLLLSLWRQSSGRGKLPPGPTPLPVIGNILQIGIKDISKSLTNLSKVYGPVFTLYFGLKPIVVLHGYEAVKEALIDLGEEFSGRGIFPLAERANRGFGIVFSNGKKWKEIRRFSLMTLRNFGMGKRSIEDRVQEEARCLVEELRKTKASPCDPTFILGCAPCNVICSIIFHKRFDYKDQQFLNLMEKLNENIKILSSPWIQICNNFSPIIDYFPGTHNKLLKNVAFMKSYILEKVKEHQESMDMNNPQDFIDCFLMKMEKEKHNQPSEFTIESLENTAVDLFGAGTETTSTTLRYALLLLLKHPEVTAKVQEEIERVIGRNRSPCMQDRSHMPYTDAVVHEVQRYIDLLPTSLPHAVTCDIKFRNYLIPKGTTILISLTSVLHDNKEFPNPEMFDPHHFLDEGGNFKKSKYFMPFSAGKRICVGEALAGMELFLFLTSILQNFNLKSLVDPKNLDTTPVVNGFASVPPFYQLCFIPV
T3 sequence (P33261 whole entry): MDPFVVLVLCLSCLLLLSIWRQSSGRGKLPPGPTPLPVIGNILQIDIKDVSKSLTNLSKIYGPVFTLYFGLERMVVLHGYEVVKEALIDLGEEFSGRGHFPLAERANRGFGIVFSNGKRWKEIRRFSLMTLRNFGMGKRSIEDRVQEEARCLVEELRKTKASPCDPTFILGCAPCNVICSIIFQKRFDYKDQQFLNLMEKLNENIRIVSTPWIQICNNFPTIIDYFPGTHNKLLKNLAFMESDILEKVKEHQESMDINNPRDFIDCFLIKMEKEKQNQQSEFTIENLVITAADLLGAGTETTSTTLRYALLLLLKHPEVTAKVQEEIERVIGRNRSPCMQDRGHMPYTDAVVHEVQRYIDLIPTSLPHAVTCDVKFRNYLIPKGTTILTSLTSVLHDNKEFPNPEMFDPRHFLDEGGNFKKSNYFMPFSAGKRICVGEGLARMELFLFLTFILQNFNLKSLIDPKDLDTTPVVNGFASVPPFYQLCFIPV

With `CC(O)c1cccc2cc(C(O)CNC(C)(C)C)oc12` (stereo not drawn) [1-hydroxybufuralol], the Drug absorption rate in data set [1] is recorded as 0.9648. Moreover, in data set [1] (PDMS device without PHH), the “absorption in the microfluidic device” value is listed as “not absorbed”. For the same compound, the “formation rate of metabolite, microfluidic device versus polystyrene plate” value on CYP2D6 is “similar”.
On to `O=C(O)Cc1ccccc1Nc1c(Cl)cc(O)cc1Cl` [4-hydroxy diclofenac, 4-hydroxydiclofenac], for which, in data set [1], the Drug absorption rate worked out at 0.725. For the same compound, the “formation rate of metabolite, microfluidic device versus PS plate” value at CYP2C9 is given as “significantly lower”.
For the compound `CCC1(c2ccc(O)cc2)NC(=O)N(C)C1=O` (stereo not drawn) [4-hydroxymephenytoin], the Drug absorption rate in data set [1] is 0.8633. The “formation rate of metabolite, microfluidic device versus PS plate” value at CYP2C19 is recorded as “significantly lower”.
For `CC(=O)Nc1ccc(O)cc1` [Acetaminophen, acetaminophen], in data set [1], the Drug absorption rate was 0.8987. The compound also returned a CC50 at 4 days in data set [2] of 9.4 mM. In addition, the “cell viability, microfluidic device versus polystyrene plate” value with PHH is on record as “significantly lower”. Moreover, in the data set with CYP1A2, the “formation rate of metabolite, microfluidic device versus polystyrene plate” value is listed as “similar”.
Turning to `CCC1(c2ccccc2)C(=O)NC(=O)NC1=O` [phenobarbital], in the data set with CYP2B6, the CYP2B6 expression level result is “induced in both the microfluidic device and the polystyrene plate”.
